The subject of series [1] is Bacillus subtilis. Put plainly: Antibacterial activity against Bacillus subtilis assessed as reduction in bacterial growth. In kind it is functional, organism-based.
Series [2] deals with HeLa. Put plainly: Antiproliferative activity against human HeLa cells assessed as reduction in cell viability incubated for 24 hrs by MTT assay. In kind it is functional, cell-based. In general terms: Formazan colour is commonly taken as a measure of viable cells.
In series [3] the test system is A549. Put plainly: Antiproliferative activity against human A549 cells assessed as reduction in cell viability incubated for 24 hrs by MTT assay. In kind it is functional, cell-based. The conditions noted are these: A549, 24 h.
For series [4], the system named is HCT-116. Description: Antiproliferative activity against human HCT-116 cells assessed as reduction in cell viability incubated for 24 hrs by MTT assay. In kind it is functional, cell-based. Conditions: HCT-116, 24 h.
Series [5] relates to HL-60. Description: Cytotoxicity against human HL-60 cells assessed as reduction in cell growth by resazurin assay. In kind it is functional, cell-based.
The subject of series [6] is A549. Put plainly: Cytotoxicity against human A549 cells assessed as reduction in cell growth by resazurin assay. The class given is functional, cell-based.
Series [7] relates to NIH3T3. Put plainly: Cytotoxicity against mouse NIH/3T3 cells assessed as reduction in cell growth by resazurin assay. The class given is functional, cell-based. In general terms: The colour change of resazurin is a common sign of viable cells or microbes.
The test system of series [8] is Escherichia coli. Description: Antimicrobial activity against Escherichia coli assessed as reduction in microbial growth. The class given is functional, organism-based.
The test system of series [9] is A549. Put plainly: Cytotoxicity against human A549 cells assessed as reduction in cell viability by MTT assay. The class given is functional, cell-based.
The subject of series [10] is MCF7. Put plainly: Cytotoxicity against human MCF7 cells assessed as reduction in cell viability by MTT assay. In kind it is functional, cell-based.
Series [11] is described as follows: Cytotoxicity against human BEAS-2B cells assessed as reduction in cell viability by MTT assay. The class given is toxicity, cell-based.
The test system of series [12] is BXPC-3. Description: Antiproliferative activity against human BXPC-3 cells assessed as reduction in cell growth incubated for 72 hrs by MTT assay. In kind it is functional, cell-based. Conditions: Homo sapiens, BXPC-3, 72 h.
In series [13] the test system is HCT-116. Description: Anticancer activity against human HCT-116 cells assessed as inhibition of cell viability at 20 uM relative to control. The class given is functional.
In series [14] the test system is HCT-116. Description: Anticancer activity against human HCT-116 cells assessed as reduction in cell viability. The class given is functional, cell-based.
Series [15] deals with Cyclin-dependent kinases regulatory subunit 1/S-phase kinase-associated protein 2 (Homo sapiens) (UniProt P61024+Q13309). Put plainly: Inhibition of SKP2/CKS1 (unknown origin) protein-protein interaction at 50 uM relative to control. The class given is protein assay.
The subject of series [16] is MDA-MB-231. Put plainly: Antiproliferative activity against human MDA-MB-231 cells. In kind it is functional, cell-based.
In series [17] the test system is T47D. Description: Antiproliferative activity against human T47D cells. In kind it is functional, cell-based.
In series [18] the test system is MCF7. Put plainly: Antiproliferative activity against human MCF7 cells. In kind it is functional, cell-based.
Series [19] has as its system LoVo. Description: Antiproliferative activity against human LoVo cells. The class given is functional, cell-based.
Series [20] has as its system HCT-116. Put plainly: Antiproliferative activity against human HCT-116 cells. The class given is functional, cell-based.
Series [21] has as its system A549. Description: Growth inhibition of human A549 cells measured for 48 hrs by SRB assay. In kind it is functional. For orientation: In SRB staining, fixed cells bind dye roughly in proportion to their protein.
Series [22] relates to PC-3. Description: Growth inhibition of human PC-3 cells measured for 48 hrs by SRB assay. The class given is functional.
The test system of series [23] is MCF7. Description: Growth inhibition of human MCF7 cells measured for 48 hrs by SRB assay. The class given is functional.
Series [24] deals with HepG2. Put plainly: Growth inhibition of human HepG2 cells measured for 48 hrs by SRB assay. In kind it is functional.
Series [25] concerns DU-145. Description: Cytotoxicity against human DU-145 cells assessed as reduction in cell viability incubated for 48 hrs by SRB assay. Conditions: DU-145, 48 h. The class given is functional, cell-based.
Series [26] deals with MDA-MB-231. Description: Cytotoxicity against human MDA-MB-231 cells assessed as reduction in cell viability incubated for 48 hrs by SRB assay. The class given is functional, cell-based. The conditions noted are these: MDA-MB-231, 48 h.
The subject of series [27] is HepG2. Description: Cytotoxicity against human HepG2 cells assessed as reduction in cell viability incubated for 48 hrs by SRB assay. In kind it is functional, cell-based. The conditions noted are these: HepG2, 48 h.
Series [28] relates to HeLa. Description: Cytotoxicity against human HeLa cells assessed as reduction in cell viability incubated for 48 hrs by SRB assay. In kind it is functional, cell-based.

In brackets after ≈: the same amount, converted by molar mass.

Cyclin-dependent kinases regulatory subunit 1/S-phase kinase-associated protein 2 (Homo sapiens), sequence (P61024 2-79 limits assumed): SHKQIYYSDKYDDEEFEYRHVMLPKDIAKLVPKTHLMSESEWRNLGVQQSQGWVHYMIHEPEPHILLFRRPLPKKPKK
Cyclin-dependent kinases regulatory subunit 1/S-phase kinase-associated protein 2 (Homo sapiens), sequence (Q13309 whole entry partner): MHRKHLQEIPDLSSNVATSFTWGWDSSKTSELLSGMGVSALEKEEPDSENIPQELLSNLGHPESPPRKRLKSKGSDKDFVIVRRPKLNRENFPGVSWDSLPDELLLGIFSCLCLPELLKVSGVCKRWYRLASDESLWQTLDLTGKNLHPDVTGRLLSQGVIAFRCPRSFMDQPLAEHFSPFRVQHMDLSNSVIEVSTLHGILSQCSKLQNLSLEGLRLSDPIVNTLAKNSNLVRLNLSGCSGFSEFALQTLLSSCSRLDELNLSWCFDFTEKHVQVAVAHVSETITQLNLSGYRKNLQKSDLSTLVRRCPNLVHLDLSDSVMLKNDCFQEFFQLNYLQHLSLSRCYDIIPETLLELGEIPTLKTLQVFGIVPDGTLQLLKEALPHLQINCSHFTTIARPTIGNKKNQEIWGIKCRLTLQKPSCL

The IC50 is the point on the concentration scale where inhibition reaches its midpoint. Consider `CN[C@@H]1[C@@H](O)[C@@H](O[C@@H]2[C@@H](O)[C@H](O[C@H]3O[C@H](CN)CC[C@H]3N)[C@@H](N)C[C@H]2N)OC[C@]1(C)O` [GENTAMICIN C1A], for which the IC50 in series [1] is 0.115 µM.
Turning to `COc1ccc(C2c3ccccc3-c3nc(C)cc(C(F)(F)F)c32)cc1OC` (stereo not given), the IC50 in series [2] came to 5.52 µM; in series [3] it was 19.5 µM; in series [4] it was 15.4 µM.
Take `CC(C)C[C@H](NC(=O)[C@H](Cc1ccccc1)NC(=O)c1cnccn1)B(O)O` [BORTEZOMIB]: the IC50 in [5] was 7.42 µM.
`Cc1cc(C(F)(F)F)c2c(n1)-c1ccccc1C2c1ccsc1` (stereo not given): the IC50 in series [2] is 2.32 µM; in series [3], > 50 µM; in series [4], > 50 µM.
On to `Cc1cc(C)cc(P(=O)(c2cc(C)cc(C)c2)C2C(C#N)=C(N)Oc3c(Br)cccc32)c1` (stereo not given), for which the IC50 in [6] is > 30 µM; in series [7] it was > 30 µM; in series [5], 9.8 µM; in series [1], > 10 µM; in series [8], > 10 µM.
As to `O=NN(CCCl)C(=O)NCCCl` [CARMUSTINE], the IC50 was found to be 6.35 µg/mL (≈ 29.7 µM) in series [9], 9.34 µg/mL (≈ 43.6 µM) in [10] and 6.52 µg/mL (≈ 30.5 µM) in series [11].
In the case of `C[C@H]1c2cccc(O)c2C(=O)C2=C(O)[C@]3(O)C(=O)C(C(N)=O)=C(O)[C@@H](N(C)C)[C@@H]3[C@@H](O)[C@@H]21` [DOXYCYCLINE ANHYDROUS], the results for the IC50 in series [1] and in [8] were 0.126 µM and 0.1 µM, respectively.
`Cc1ccc([C@@H]2NC(=O)n3c(cc4ccccc43)C23CC3)cc1`: the IC50 in [12] was 1.7 µM.
The term inhibition denotes how much of the control response was suppressed. `CC(C)OC(=O)C1=CN(c2ccc3ccccc3c2)CC(O)(c2ccccc2)O1` (stereo not given): the inhibition at 20 µM in [13] was found to be 56%. In addition, the IC50 in series [14] was 9.4 µM.
As to `COc1ccc(N2C(=O)c3ccccc3C2Cc2cc(-c3c(OC)cc(OC)cc3OC)n3ncnc3n2)cc1` (stereo not given), the inhibition in series [15] came out at 54%.
For the molecule `Cc1cc(C)cc(P(=O)(c2cc(C)cc(C)c2)C2C(C#N)=C(N)Oc3ccc(F)cc32)c1` (stereo not given), the IC50 was > 30 µM in series [6]; > 30 µM in [7]; 10.1 µM in series [5]; 5.03 µM in [1]; > 10 µM in [8].
On to `C=C1N(S(=O)(=O)c2ccc(C)cc2)c2ccccc2C1(C)N` (racemic), for which the IC50 is 3.13 µM in series [16]; 5.37 µM in [17]; 3.92 µM in series [18]; 10.3 µM in [19]; 12.6 µM in [20].
With `COc1ccccc1C1=C2C(=O)c3ccccc3C(=O)/N=C3/c4ccccc4C(=O)C23c2cccc3c2N1CC3` (stereo not given), the values for the IC50 in series [2], in series [3] and in series [4] were 1.54 µM, 8.43 µM and 2.1 µM, respectively.
The matching figures for `COc1ccc(C2c3ccccc3-c3nc(C)cc(C(F)(F)F)c32)cc1` (stereo not given): 6.65 µM, 12.3 µM and 14.9 µM.
`CC(C)OC(=O)C1=CN(c2ccccc2)CC(O)(c2cccc(Cl)c2)O1` (stereo not given): in series [13], the inhibition at 20 µM turned out to be 77%. Also, the IC50 in series [14] was determined as 7.1 µM.
By GI50 is commonly meant the concentration giving 50% growth inhibition. A high value points to lower sensitivity of the cells. Turning to `COc1cccc2c1C(=O)c1c(O)c3c(c(O)c1C2=O)C[C@@](O)(C(=O)CO)C[C@@H]3O[C@H]1C[C@H](N)[C@H](O)[C@H](C)O1` [DOXORUBICIN], the IC50 in series [6] was found to be 0.31 µM; in series [7], 5.65 µM; in series [11], 4.18 µg/mL (≈ 7.69 µM). In addition, the GI50 in series [21], in series [22], in [23] and in [24] was < 10 µg/mL each time.
As for `CC(C)OC(=O)C1=CN(c2cccc(Br)c2)CC(O)(c2ccccc2)O1` (stereo not given), the inhibition at 20 µM in series [13] is 59%. Moreover, the IC50 in [14] was 7.6 µM.
The molecule `COc1cc(OC)c(-c2cc(CC3c4ccccc4C(=O)N3c3ccc(Br)cc3)nc3ncnn23)c(OC)c1` (stereo not given) had an inhibition in series [15] of 57%.
For `COc1cccc2c1C(=O)c1c(O)c3c(c(O)c1C2=O)C[C@@](O)(C(=O)CO)C[C@@H]3O[C@H]1C[C@H](N)[C@H](O)[C@H](C)O1.Cl` [DOXORUBICIN HYDROCHLORIDE], the IC50 in series [25] was 3.82 µg/mL; in [26], 8.64 µg/mL; in series [27] it was 26.7 µg/mL; in [28] it was 12.6 µg/mL.
Consider `COC(=O)c1nc2nc(Oc3ccccc3)c(C#N)c(-c3cccc([N+](=O)[O-])c3)c2c(N)c1C(=O)OC`, for which the IC50 in [9] turned out to be 6.12 µg/mL (≈ 12.3 µM); in series [10], 1.48 µg/mL (≈ 2.96 µM); in series [11], 4.09 µg/mL (≈ 8.19 µM).
As for `O=C1/N=C2/c3ccccc3C(=O)C23C(=C(c2cccs2)N2CCc4cccc3c42)C(=O)c2ccccc21` (stereo not given), the IC50 in [2] came out at 1.6 µM; in [3] it was 9.18 µM; in series [4] it was 1.63 µM.

These data come from ChEMBL document CHEMBL6134800, “Applications of innovative synthetic strategies in anticancer drug discovery: The driving force of new chemical reactions” (Bioorg Med Chem Lett, 2025).
